Assays:
HSD17B4 = experiment: Streptavidin-bead pull-down from LS174T cell lysates, validated by Western blot; assay type: binding
Protocol: (§1) Identification of the direct target of these AMPK activators involved incubation of 15d with LS174T cell lysates and a subsequent pull-down assay using biotinylated 15d bound to streptavidin beads. The binding proteins were eluted with 2.5 mM biotin and analyzed by 4-12% SDS-PAGE gel using colloidal blue staining (FIG. 2D). We identified two specific bands (F1 and F2) in the 15d-containing sample compared with the control samples containing only beads or only beads and biotin. These two bands were excised from gels and analyzed by NanoLC-ESI-MS/MS. The band F1 (FIG. 2D) contained two proteins: [1] peroxisomal hydroxysteroid 17-dehydrogenase-4 (HSD17B4); and [2] mitochondrial methylcrotonoyl-CoA carboxylase subunit alpha (MCCA). The band F2 also matched HSD17B4.
(§2) The multifunctional nature of HSD17B4 included two of the four enzymatic activities required for the beta-oxidation of very long-chain fatty acids (VLCFA) in the peroxisome. […] The HSD17B4 antibody (GeneTex) recognized the full-length and the C-terminal fragment (FIG. 2E).
(§3) Streptavidin-agarose pulldown: Biotinylated compound 15d (FIG. 2A) was incubated with cell lysates and streptavidin beads. The binding proteins were pulled down and analyzed by 4-12% SDS-PAGE as described previously. […]

MCCA = biological target: T1, MCCA (Homo sapiens, UniProt Q96RQ3); experiment: as above; assay type: binding
T1 construct: endogenous in cells; host or cells: LS174T colon cancer cells
T1 sequence (Q96RQ3 42-725): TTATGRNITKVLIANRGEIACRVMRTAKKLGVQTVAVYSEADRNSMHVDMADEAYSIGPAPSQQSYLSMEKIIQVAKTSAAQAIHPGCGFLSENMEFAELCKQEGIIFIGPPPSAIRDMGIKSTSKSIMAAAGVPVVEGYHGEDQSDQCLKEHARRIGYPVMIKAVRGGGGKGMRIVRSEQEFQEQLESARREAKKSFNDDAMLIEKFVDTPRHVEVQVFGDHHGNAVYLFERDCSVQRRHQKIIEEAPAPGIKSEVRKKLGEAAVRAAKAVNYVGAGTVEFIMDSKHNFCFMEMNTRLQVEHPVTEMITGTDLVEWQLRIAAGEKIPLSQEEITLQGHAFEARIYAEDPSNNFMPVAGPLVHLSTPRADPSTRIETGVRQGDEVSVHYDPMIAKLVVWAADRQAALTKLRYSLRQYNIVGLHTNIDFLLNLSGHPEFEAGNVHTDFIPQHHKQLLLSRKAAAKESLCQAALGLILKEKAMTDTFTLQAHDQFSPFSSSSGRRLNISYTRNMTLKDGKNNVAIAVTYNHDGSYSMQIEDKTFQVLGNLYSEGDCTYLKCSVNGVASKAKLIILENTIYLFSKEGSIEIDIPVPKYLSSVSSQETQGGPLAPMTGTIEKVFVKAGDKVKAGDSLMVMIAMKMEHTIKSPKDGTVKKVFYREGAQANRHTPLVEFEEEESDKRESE
Protocol: as §1, §2, §3

[1] = biological target: T2, HSD17B4 (full-length and truncated constructs) (Homo sapiens, UniProt P51659); experiment: Streptavidin bead-based pull-down with purified full-length and truncated HSD17B4 constructs; assay type: binding; conditions: purified protein from E. coli
T2 construct: His-tag; made in house; host or cells: E. coli BL21 (pET28)
T2 sequence (P51659 1-736): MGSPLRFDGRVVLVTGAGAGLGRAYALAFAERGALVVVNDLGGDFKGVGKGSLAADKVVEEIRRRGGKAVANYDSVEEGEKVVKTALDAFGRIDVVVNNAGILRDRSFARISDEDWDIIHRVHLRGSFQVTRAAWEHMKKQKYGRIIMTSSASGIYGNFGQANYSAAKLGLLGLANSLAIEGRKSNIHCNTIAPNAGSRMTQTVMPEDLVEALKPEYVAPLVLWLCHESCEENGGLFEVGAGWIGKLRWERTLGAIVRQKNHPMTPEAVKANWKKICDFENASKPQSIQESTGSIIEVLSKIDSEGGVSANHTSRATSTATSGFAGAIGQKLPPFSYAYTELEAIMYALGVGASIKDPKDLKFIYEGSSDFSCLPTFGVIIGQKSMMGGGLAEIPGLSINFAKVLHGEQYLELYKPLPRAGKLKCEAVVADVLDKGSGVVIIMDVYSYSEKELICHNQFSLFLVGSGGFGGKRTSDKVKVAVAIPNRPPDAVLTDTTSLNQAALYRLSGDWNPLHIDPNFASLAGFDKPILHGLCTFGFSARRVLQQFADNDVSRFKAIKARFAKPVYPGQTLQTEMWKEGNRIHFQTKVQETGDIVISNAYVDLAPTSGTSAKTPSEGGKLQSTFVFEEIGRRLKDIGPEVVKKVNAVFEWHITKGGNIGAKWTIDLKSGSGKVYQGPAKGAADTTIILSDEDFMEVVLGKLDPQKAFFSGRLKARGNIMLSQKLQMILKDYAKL
Excerpt: (§4) We next sought to delineate if these cystisine-linked isoflavonoid inhibitors were selective for one of the two enzymatic activities, either the α,β-dehydrogenase or hydratase activity, found in HSD17B4. We generated a panel of truncated HSD17B4 constructs and purified these truncated proteins as well as the full-length protein from E. coli (FIG. 3A). We evaluated the binding of 15d to these constructs using the streptavidin bead-based pull-down assay.
(§5) Streptavidin-agarose pulldown: Biotinylated compound 15d (FIG. 2A) was incubated with cell lysates and streptavidin beads. The binding proteins were pulled down and analyzed by 4-12% SDS-PAGE as described previously. The protein bands were identified by NanoLC-ESI-MS/MS at ProtTech Inc. For binding and enzymatic assays, His-tagged HSD17B4 constructs were clone and truncated by PCR using pET28. The full-length and truncated proteins were purified from bacteria BL21.

[2] = tested on: HSD17B4 (full-length and truncated constructs); experiment: as above; assay type: binding; conditions: purified protein from E. coli
Excerpt: as §4, §5

AMPK = AMPK activation (levels of phosphorylated AMPK, Western blotting); assay type: cell-based
Protocol: (§6) Biochemistry. Western blotting: Cells were lysed in the appropriate volume of lysis buffer (50 mM HEPES, 100 mM NaCl, 2 mM EDTA, 1% glycerol, 50 mM NaF, 1 mM Na3VO4, 1% Triton X-100, with protease inhibitors). The following antibodies were used: HSD17B4 (GeneTex, GTX103864), AMPK (Cell Signaling, 2532), pAMPK (Cell Signaling, 2535), ACC (Cell Signaling, 3676), pACC (Cell Signaling, 11818), p^70 (Cell Signaling, 2708), p-p^70 (Cell Signaling, 9914), S6 (Cell Signaling, 2217), pS6 (Cell Signaling, 4858), MCCA (GeneTex, GTX110062), tubulin (Hybridoma Bank, E7), Actin (Sigma, A1978), His-tag (BD Pharmingen, 552564).

[3] = tested on: acetyl CoA carboxylase (ACC); experiment: ACC phosphorylation / activation downstream of AMPK (Western blotting); assay type: cell-based
Protocol: as §6

| melting point [°C] | Compound | AMPK-fold Activation (10 μM) (AMPK) [fold] | AMPK activation (in words) (AMPK) | also measured |
| --- | --- | --- | --- | --- |
|  | Cc1oc2cc(OCCCCC(CN3C[C@@H]4C[C@@H](C3)c3cccc(=O)n3C4)=NNC(=O)CCOCCOCCOCCOCCNC(=O)CCCC[C@@H]3SCC4NC(=O)NC43)ccc2c(=O)c1-c1ccc(Cl)cc1 (stereo partly drawn) [Compound 15d, N-(22-((3-(4-chlorophenyl)-2-methyl-4-oxo-4H-chromen-7-yl)oxy)-15-oxo-18-(((1S,5S)-8-oxo-1,5,6,8-tetrahydro-2H-1,5-methanopyrido[1,2-a][,5]diazocin-3(4H)-yl)methyl)-3,6,9,12-tetraoxa-16,17-diazadocos-17-en-1-yl)-5-((4S)-2-oxohexahydro-1H-thieno[3,4-d]imidazol-4-yl)pentanamide] |  |  | binding of HSD17B4 in pull-down (HSD17B4): specific binding protein; binding of MCCA in pull-down (MCCA): non-specific binding protein; interaction with full-length HSD17B4 [1]: interacted; binding to N-terminus-truncated fragment C919 [2]: strongly bound; interaction with C-terminus-truncated fragment N634 [2]: not the C-terminus-truncated fragments N318 and N634, interacted |
| 186 to 187 | Cc1oc2cc(OCCN3C[C@@H]4C[C@H](C3)c3cccc(=O)n3C4)ccc2c(=O)c1-c1ccc(Cl)cc1 [Compound 10d, (1R,5S)-3-(2-((3-(4-Chlorophenyl)-2-methyl-4-oxo-4H-chromen-7-yl)oxy)ethyl)-3,4,5,6-tetrahydro-1H-1,5-methanopyrido[1,2-a][1,5]diazocin-8(2H)-one] | 2.2 |  |  |
|  | O=c1cccc2n1C[C@H]1C[C@H]2CN(CC(O)CCCCOc2ccccc2)C1 (stereo partly drawn) [Compound 16, (1S,5S)-3-(2-Hydroxy-6-phenoxyhexyl)-3,4,5,6-tetrabydro-1H-1,5-methanopyrido[1,2-a][1,5]diazocin-8(2H)-one] |  | inactive |  |
|  | O=C(CCCCOc1ccccc1)CN1C[C@@H]2C[C@@H](C1)c1cccc(=O)n1C2 [Compound 17, (1S,5S)-3-(2-oxo-6-phenoxyhexyl)-3,4,5,6-tetrahydro-1H-1,5-methanopyrido[1,2-a][1,5]diazocin-8(2H)-one] |  | inactive |  |
|  | O=c1c(-c2ccc(Cl)cc2)coc2cc(O)ccc12 [Compound 3c, 3-(4-Chlorophenyl)-7-hydroxy-4H-chromen-4-one] |  | most active AMPK activators | activation of acetyl CoA carboxylase [3]: modest activation |
| 197 to 198 | O=c1c(-c2ccccc2)coc2cc(OCCN3C[C@@H]4C[C@H](C3)c3cccc(=O)n3C4)ccc12 [Compound 10a, (1R,5S)-3-(2-((4-Oxo-3-phenyl-4H-chromen-7-yl)oxy)ethyl)-3,4,5,6-tetrahydro-1H-1,5-methanopyrido[1,2-a][1,5]diazocin-8(2H)-one] | 3.6 |  |  |
|  | COc1ccc(-c2coc3cc(OCCN4C[C@@H]5C[C@H](C4)c4cccc(=O)n4C5)ccc3c2=O)cc1 [Compound 10b, (1R,5S)-3-(2-((3-(4-Methoxyphenyl)-4-oxo-4H-chromen-7-yl)oxy)ethyl)-3,4,5,6-tetrahydro-1H-1,5-methanopyrido[1,2-a][1,5]diazocin-8(2H)-one] | 9.9 |  |  |

| Compound | melting point [°C] | AMPK-fold Activation (10 μM) (AMPK) [fold] | AMPK activation (in words) (AMPK) | also measured |
| --- | --- | --- | --- | --- |
| Cc1oc2cc(O)ccc2c(=O)c1-c1ccc(Cl)cc1 [Compound 3d, 3-(4-Chlorophenyl)-7-hydroxy-2-methyl-4H-chromen-4-one] | 277 to 278 |  | most active AMPK activators | activation of acetyl CoA carboxylase [3]: modest activation |

Reference: patent US10188743B2, “Cytisine-linked isoflavonoid antineoplastic agents for the treatment of cancer” (UNIVERSITY OF KENTUCKY RESEARCH FOUNDATION, priority 2016, dated 2019)
